This is an account of results in ChEMBL document CHEMBL4118122, “Identification and biological evaluation of thiazole-based inverse agonists of RORγt” (Bioorg Med Chem Lett, 2018).

A short description of series [1]: AUC (0 to infinity) in Sprague-Dawley rat at 5 mg/kg, po. The note with it: in vivo. Also on record: dose 5 mg/kg, route oral, time infinity. Type of series: ADME, organism-based.
Series [2] concerns the target Cytochrome P450 2C19 (Homo sapiens, UniProt P33261). Nature of the series: Inhibition of CYP2C19 (unknown origin). Type of series: ADME.
Series [3] can be described thus: Cmax in Sprague-Dawley rat at 5 mg/kg, po. Type of series: ADME, organism-based. Also on record: dose 5 mg/kg, route oral. Conditions: in vivo.
The nature of series [4]: Clearance in Sprague-Dawley rat at 1 mg/kg, iv. The note with it: in vivo. Type of series: ADME, organism-based.
In series [5] the target is T1, Cytochrome P450 2C8 (Homo sapiens, UniProt P10632).
T1 sequence (P10632 whole entry): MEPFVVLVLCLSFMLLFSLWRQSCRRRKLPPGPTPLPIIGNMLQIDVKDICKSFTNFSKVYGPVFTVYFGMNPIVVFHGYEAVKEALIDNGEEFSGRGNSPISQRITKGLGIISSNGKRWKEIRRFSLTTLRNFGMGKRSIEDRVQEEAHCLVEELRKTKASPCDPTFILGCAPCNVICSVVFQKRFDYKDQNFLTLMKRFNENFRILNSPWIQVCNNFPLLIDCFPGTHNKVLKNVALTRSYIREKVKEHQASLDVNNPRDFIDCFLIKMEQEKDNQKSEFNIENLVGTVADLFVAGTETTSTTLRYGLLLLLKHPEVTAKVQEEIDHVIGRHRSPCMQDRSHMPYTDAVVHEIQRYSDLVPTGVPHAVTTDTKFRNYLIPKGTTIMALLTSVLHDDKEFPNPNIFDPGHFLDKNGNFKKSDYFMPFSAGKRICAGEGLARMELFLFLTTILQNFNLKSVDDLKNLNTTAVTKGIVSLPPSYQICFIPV
Nature of the series: Inhibition of CYP2C8 (unknown origin). The class given is ADME.

Series [6] in a line: AUC (0 to infinity) in Sprague-Dawley rat at 1 mg/kg, iv. Conditions: in vivo. Also on record: dose 1 mg/kg, time infinity, route intravenous. Type of series: ADME, organism-based.
A short description of series [7]: Thermodynamic solubility of the compound in 30 mM phosphate buffer at 10 mM at pH 7 after 2 to 5 days by UV-HPLC analysis. Type of series: physicochemical. Conditions: read-out: Therm_solubility.
Series [8] addresses T2, Cytochrome P450 1A2 (Homo sapiens, UniProt P05177).
T2 sequence (P05177 whole entry): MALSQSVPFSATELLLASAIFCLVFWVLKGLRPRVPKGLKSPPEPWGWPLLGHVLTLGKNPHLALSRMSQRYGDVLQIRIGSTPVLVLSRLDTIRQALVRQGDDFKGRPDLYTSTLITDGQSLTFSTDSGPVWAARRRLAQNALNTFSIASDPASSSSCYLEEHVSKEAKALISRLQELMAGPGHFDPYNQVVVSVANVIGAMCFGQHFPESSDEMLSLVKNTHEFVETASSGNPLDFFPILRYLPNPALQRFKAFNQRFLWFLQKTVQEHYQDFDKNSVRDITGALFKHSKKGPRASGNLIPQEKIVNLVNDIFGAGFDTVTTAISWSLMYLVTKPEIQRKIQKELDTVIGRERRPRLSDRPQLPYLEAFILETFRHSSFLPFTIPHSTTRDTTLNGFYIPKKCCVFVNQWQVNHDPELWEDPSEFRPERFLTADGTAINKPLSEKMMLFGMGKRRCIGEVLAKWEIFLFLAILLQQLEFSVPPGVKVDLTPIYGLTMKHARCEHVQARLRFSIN
Nature of the series: Inhibition of CYP1A2 (unknown origin). Type of series: ADME.

Series [9] is described as follows: Half life in Sprague-Dawley rat at 1 mg/kg, iv. Type of series: ADME, organism-based. The note with it: in vivo.
Series [10] has as its target Cytochrome P450 3A4 (Homo sapiens, UniProt P08684). Nature of the series: Inhibition of CYP3A4 (unknown origin). The class given is ADME.
In series [11] the target is T3, PXR (NR1I2) (Homo sapiens, UniProt O75469).
T3 sequence (O75469 whole entry): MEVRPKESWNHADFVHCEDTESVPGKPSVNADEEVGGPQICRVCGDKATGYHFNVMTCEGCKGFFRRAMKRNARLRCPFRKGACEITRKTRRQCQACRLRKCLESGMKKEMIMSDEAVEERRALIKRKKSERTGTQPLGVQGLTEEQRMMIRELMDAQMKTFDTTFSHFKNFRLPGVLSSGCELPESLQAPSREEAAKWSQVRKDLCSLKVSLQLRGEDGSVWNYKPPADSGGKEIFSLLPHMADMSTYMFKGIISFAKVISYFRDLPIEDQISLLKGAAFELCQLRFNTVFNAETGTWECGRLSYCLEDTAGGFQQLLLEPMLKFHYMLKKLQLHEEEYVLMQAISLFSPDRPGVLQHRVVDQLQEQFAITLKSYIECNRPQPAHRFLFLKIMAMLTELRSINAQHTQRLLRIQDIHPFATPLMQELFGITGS
Put plainly: […] at PXR LBD (unknown origin) expressed in HEK293 cells […] at 1 uM after 16 hrs by luciferase reporter gene assay relative to rifampicin. Type of series: ADME, cell-based. The note with it: HEK293 cells expressing PXR LBD, read-out: Efficacy.

Series [12] addresses Cytochrome P450 2D6 (Homo sapiens, UniProt P10635). Nature of the series: Inhibition of CYP2D6 (unknown origin). The class given is ADME.
Series [13] concerns the target Cytochrome P450 2C9 (Homo sapiens, UniProt P11712). Nature of the series: Inhibition of CYP2C9 (unknown origin). The class given is ADME.
Series [14] in a line: Half life in human microsomes. The class given is ADME, Microsome.
Series [15] concerns the target T3, PXR (NR1I2). Nature of the series: […] at PXR LBD (unknown origin) expressed in HEK293 cells […] at 5 uM after 16 hrs by luciferase reporter gene assay relative to rifampicin. The note with it: HEK293 cells expressing PXR LBD, read-out: Efficacy. Type of series: ADME, cell-based.
A short description of series [16]: Oral bioavailability in Sprague-Dawley rat at 5 mg/kg. The class given is ADME, organism-based. The note with it: in vivo.
Series [17] is described as follows: Volume of distribution at steady state in Sprague-Dawley rat at 1 mg/kg, iv. The class given is ADME, organism-based. The note with it: in vivo, read-out: Vdss.
Series [18] is described as follows: Terminal half life in Sprague-Dawley rat at 5 mg/kg, po. The note with it: in vivo, read-out: beta t1/2 (converted). The class given is ADME, organism-based.
The nature of series [19]: Tmax in Sprague-Dawley rat at 5 mg/kg, po. The class given is ADME, organism-based. Conditions: in vivo.
Series [20] in a line: Initial plasma concentration in Sprague-Dawley rat at 1 mg/kg, iv. The class given is ADME, organism-based.
The nature of series [21]: Half life in rat microsomes. The class given is ADME, Microsome.
A short description of series [22]: Thermodynamic solubility of the compound in fasted state simulated intestinal […] after 2 to 5 days by UV-HPLC analysis. The class given is physicochemical. Conditions: read-out: Therm_solubility.
Series [23] concerns the target T3, PXR (NR1I2). Nature of the series: […] at PXR LBD (unknown origin) expressed in HEK293 cells […] at 10 uM after 16 hrs by luciferase reporter gene assay relative to rifampicin. Type of series: ADME, cell-based. Conditions: HEK293 cells expressing PXR LBD, read-out: Efficacy.

Converted amounts (≈) assume the structure as drawn.

Cytochrome P450 2C19, sequence (P33261 whole entry): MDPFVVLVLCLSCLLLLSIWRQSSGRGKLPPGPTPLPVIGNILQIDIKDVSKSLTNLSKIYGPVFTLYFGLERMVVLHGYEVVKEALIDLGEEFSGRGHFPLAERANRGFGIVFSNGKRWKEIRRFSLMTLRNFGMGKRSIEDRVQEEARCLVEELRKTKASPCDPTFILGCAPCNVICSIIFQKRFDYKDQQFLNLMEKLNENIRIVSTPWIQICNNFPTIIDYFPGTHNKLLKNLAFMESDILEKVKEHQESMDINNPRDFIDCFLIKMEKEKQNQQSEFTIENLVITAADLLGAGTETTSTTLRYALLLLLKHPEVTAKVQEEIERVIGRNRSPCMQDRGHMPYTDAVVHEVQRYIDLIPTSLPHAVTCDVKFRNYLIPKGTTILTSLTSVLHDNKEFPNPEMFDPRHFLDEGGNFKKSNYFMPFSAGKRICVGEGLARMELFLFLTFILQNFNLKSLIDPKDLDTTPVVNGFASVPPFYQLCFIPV
Cytochrome P450 3A4, sequence (P08684 whole entry): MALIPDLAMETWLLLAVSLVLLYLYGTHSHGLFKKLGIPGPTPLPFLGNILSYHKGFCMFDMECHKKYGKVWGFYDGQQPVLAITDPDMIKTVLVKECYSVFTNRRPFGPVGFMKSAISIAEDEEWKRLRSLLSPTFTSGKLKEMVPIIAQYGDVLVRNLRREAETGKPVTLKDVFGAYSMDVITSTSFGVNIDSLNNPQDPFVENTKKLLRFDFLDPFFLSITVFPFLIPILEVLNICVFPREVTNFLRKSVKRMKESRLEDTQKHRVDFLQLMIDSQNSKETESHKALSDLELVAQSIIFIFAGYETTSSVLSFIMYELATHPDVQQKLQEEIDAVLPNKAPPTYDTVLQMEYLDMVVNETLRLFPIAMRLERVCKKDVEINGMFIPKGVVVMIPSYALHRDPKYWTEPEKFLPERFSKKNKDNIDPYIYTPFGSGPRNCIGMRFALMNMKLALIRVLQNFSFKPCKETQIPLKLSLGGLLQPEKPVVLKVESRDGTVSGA
Cytochrome P450 2D6, sequence (P10635 whole entry): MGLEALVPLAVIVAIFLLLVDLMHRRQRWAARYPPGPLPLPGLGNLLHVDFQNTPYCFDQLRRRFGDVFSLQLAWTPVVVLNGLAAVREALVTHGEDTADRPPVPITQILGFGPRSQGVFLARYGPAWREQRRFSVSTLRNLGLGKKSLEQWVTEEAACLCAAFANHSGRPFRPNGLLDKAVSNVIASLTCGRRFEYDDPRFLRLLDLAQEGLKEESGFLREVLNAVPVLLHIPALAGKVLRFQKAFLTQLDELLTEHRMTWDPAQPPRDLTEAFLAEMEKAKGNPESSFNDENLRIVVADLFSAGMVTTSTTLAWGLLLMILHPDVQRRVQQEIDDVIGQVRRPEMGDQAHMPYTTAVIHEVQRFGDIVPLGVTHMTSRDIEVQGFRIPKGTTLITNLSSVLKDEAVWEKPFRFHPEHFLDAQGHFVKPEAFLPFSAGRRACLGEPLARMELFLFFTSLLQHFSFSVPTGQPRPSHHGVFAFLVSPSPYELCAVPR
Cytochrome P450 2C9, sequence (P11712 whole entry): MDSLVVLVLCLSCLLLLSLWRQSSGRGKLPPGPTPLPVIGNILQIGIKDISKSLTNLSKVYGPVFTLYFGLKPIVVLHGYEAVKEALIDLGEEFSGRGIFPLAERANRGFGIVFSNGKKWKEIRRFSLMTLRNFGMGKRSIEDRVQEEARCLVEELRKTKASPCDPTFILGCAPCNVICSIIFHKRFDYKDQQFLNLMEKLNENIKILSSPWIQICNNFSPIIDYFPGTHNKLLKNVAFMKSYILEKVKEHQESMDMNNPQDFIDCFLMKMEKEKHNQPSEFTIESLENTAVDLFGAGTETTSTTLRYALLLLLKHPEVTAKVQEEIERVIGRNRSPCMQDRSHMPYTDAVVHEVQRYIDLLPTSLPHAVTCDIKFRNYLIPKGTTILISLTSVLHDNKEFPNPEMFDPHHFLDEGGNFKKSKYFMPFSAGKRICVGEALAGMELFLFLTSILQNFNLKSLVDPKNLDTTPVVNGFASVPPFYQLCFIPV

Regarding `C[C@H](NS(=O)(=O)c1ccc(-c2sc(C(=O)NCC(C)(C)O)nc2CC2CC2)c2ccccc12)C(F)(F)F`, the total exposure AUC(0-inf) in series [1] amounted to 314 ng·h/mL; in [6] it was 415 ng·h/mL. Besides, the INH was 2 µM in [2]; 3.3 µM in series [5]; over 10 µM in series [8]; over 10 µM in [10]; over 10 µM in [12]; 0.4 µM in series [13]. In series [3], this molecule came in with a Cmax of 55 ng/mL. Moreover, the clearance in series [4] amounted to 40.7 mL/min/kg. Also, the solubility thermodynamic at 10000 µM in series [7] is under 4 µM. The half-life in series [9] was 10.2 h; in [14], over 3 h; in [18] it was 6.9 h; in series [21], 0.9 h. Besides, the Emax at 16 h, 1 µM in [11] turned out to be 122%. Also, the Emax at 16 h, 5 µM in [15] is 188%. The molecule further gave a bioavailability in [16] of 14.8%. Moreover, the Vd in series [17] is 29.5 L/kg. In series [19], the Tmax came out at 0.8 h. For the same molecule, the C0 in series [20] is 119 ng/mL.
Consider `CC(C)NS(=O)(=O)c1ccc(-c2sc(C(=O)N[C@H]3C[C@H](C(=O)O)C3)nc2CC2CCCCC2)c(C(F)F)c1Cl`, for which the INH in series [2] is over 10 µM; in series [5] it was 6.2 µM; in series [8], over 10 µM; in series [10], over 10 µM; in series [12], over 10 µM; in series [13], 7.6 µM. Also, the solubility thermodynamic at 10000 µM in series [7] was 11 µM (≈ 6.65 µg/mL). Moreover, in series [11], the Emax at 16 h, 1 µM came to 66%. For the same molecule, the half-life in series [14] was 1.88 h; in [21], 1.42 h. In addition, the Emax at 16 h, 5 µM in series [15] amounted to 113%. Besides, the solubility thermodynamic in series [22] was over 400 µM.
As to `Cc1c(S(=O)(=O)NC(C)(C)C)ccc(-c2sc(C(=O)N[C@H]3C[C@H](C(=O)O)C3)nc2CC2CCCCC2)c1OC(F)F`, the INH in series [2] is over 10 µM; in [5], 4 µM; in [8], over 10 µM; in series [10], over 10 µM; in series [12], over 10 µM; in series [13] it was 8.7 µM. Besides, the solubility thermodynamic at 10000 µM in series [7] is under 1 µM. The Emax at 16 h, 1 µM in [11] was 86%. Besides, the half-life in [14] was determined as 0.617 h; in series [21] it was 0.433 h. The solubility thermodynamic in [22] was 50 µM (≈ 30.7 µg/mL). Moreover, the Emax at 16 h, 10 µM in series [23] was 173%.
